Where “and” joins values, the source holds several entries; their conditions need not be identical. Equal values may be shown once. After the bases stand the sugars from the 5' end (letter, count) and the backbone: PS all phosphorothioate, else s phosphorothioate and o phosphodiester by linkage. Methylation of C is not given here. e = 2'-O-(2-methoxyethyl) (MOE); k = constrained ethyl (cEt); d = 2'-deoxy (DNA); m = 2'-O-methyl
How the values were obtained:
IRF4 = settings: ASO
HSD17B13 = settings: ASO, HepaRG

Sequence	target mRNA inhibition (HSD17B13; 1 µM)	further results
TCGCATCCAGACCCTT (sugars k3 d10 k3, PS)		target mRNA inhibition (IRF4; SK-MEL-28, 4 µM): 28%
GGTATTTTTCCGTTCC (sugars k3 d10 k3, PS)		target mRNA inhibition (IRF4; MM.1R, 1 µM): 30%
CATGAGCTCGGTCAAC (sugars k3 d10 k3, PS)		target mRNA inhibition (IRF4; MM.1R, 1 µM): -1%
GAAGCATTTTATCATC (sugars e1 k2 d9 k2 e2, PS)		target mRNA inhibition (IRF4; MM.1R, 1 µM): 1%
TGGCCCTTCTCTCACG (sugars k3 d10 k3, PS)		target mRNA inhibition (IRF4; SK-MEL-28, 4 µM): 11%
TTGTTCCACCCCTGGG (sugars k3 d10 k3, PS)		target mRNA inhibition (IRF4; SK-MEL-28, 4 µM): 47%
CCTCAGGAAATGTCCA (sugars k3 d10 k3, PS)		target mRNA inhibition (IRF4; SK-MEL-28, 4 µM): 37%
GGATGGAACAGTAACT (sugars k3 d10 k3, PS)		target mRNA inhibition (IRF4; SK-MEL-28, 4 µM): 52%
TTCAGTGCTCACTGCT (sugars k3 d10 k3, PS)		target mRNA inhibition (IRF4; SK-MEL-28, 4 µM): 69%
TCCTCAAAGTCATTGC (sugars k4 d8 k4, PS)		target mRNA inhibition (IRF4; SK-MEL-28, 4 µM): 10%
TGGGATTATATACTGG (sugars kkdddddddddekeke, PS)		target mRNA inhibition (IRF4; MM.1R, 1 µM): 63%
GCACAGAACACCTGAT (sugars k3 d10 k3, PS)		target mRNA inhibition (IRF4; SK-MEL-28, 4 µM): 56%
AAGTGTCTAAAGTCCC (sugars kkddddddddddkeke, PS)		target mRNA inhibition (IRF4; MM.1R, 1 µM): 10% and 12%
ACTAACAGGGAGACTG (sugars k3 d10 k3, PS)		target mRNA inhibition (IRF4; MM.1R, 1 µM): -19%
TAGTCTTGATGTAGTG (sugars kkdddddddddkekek, PS)	43%	
TGTAGTGGGAGTCGGA (sugars k3 d1 m1 d8 k3, PS)	50%	
GAAATAACTGTTCTCC (sugars k3 d10 k3, PS)	32%	
GTATAGTTATCTTCTC (sugars k3 d1 m1 d8 k3, PS)	54%	
TAGTCTGCCTGCCTAT (sugars k3 d10 k3, PS)	44%	
GCCGCACACTGAAGCC (sugars k3 d10 k3, PS)	25%	
ATCTCTGGGACCAAGG (sugars kkdddddddddkekek, PS)	65%	
TGATATGTCAATACTC (sugars k3 d10 k1 d1 k1, PS)	57%	
CTAGGATTAATCATGG (sugars k3 d10 k3, PS)	65%	
TCTAAATTATTGCCTG (sugars k3 d10 k3, PS)	43%	
GAGTTATTCTCTTGAC (sugars k3 d10 k3, PS)	57%	

Sequence	target mRNA inhibition (HSD17B13; 1 µM)	further results
AGGCTAGGGAAATCTT (sugars k3 d10 k3, PS)	62%	
GCATCAAGACATTCTA (sugars k3 d10 k3, PS)	72%	
GGTCATTTAGAATACG (sugars k3 d10 k3, PS)	39%	
CAGTCTTAAACCTTCC (sugars k3 d1 m1 d8 k3, PS)	59%	
CAGCATCAAGACATTC (sugars k3 d10 k3, PS)	72% and 70%	
CTATAGTAATCACAAG (sugars k3 d1 m1 d8 k3, PS)	37%	
AGGTAGCTTTTGTCCA (sugars kkdddddddddkekek, PS)	26%	
TTGATATTCTGTGGCA (sugars kkdddddddddkekek, PS)	55%	
GCTTACGACAGGTCAT (sugars k3 d10 k3, PS)	73%	
GATTACAGCATCAAGA (sugars k3 d10 k3, PS)	52%	
CTGTAAGAGTCAGTAT (sugars k3 d10 k3, PS)	42%	
GAATGCTACTTGAACA (sugars k3 d10 k3, PS)	44%	
AATGAGGCGGCACTCA (sugars k3 d10 k3, PS)	20%	
TTGAACAGTCTTAAAC (sugars k3 d10 k3, PS)	33%	
AAAACATTGCTCTTCG (sugars k3 d10 k3, PS)	59%	
AACTACAAGAGGTTAT (sugars k3 d10 k3, PS)	57%	
CTGTGGCATGGCTACA (sugars kkdddddddddkekek, PS)	33%	
AGACTTTGAGACTCTT (sugars k3 d10 k3, PS)	57%	
TAAACAATATTAAGGG (sugars k3 d10 k3, PS)	0%	
AATATGTCCAGGTTGA (sugars k3 d10 k3, PS)	64%	
GAGATAAAGCTGCCTG (sugars k3 d10 k3, PS)	67%	
ACCTGATTTAGAGAGC (sugars k3 d10 k3, PS)	65%	
CTGATATGAGTAAAGA (sugars k3 d10 k3, PS)	21%	
CTACAAAACTGGTATC (sugars k3 d10 k3, PS)	0%	
ATGCAGCTATAGGTAG (sugars k3 d10 k3, PS)	41%	

Sequence	target mRNA inhibition (HSD17B13; 1 µM)	further results
GGCTACAGATTGGAAT (sugars k3 d9 k3 e1, PS)	28%	
AGCTAGACAATTGCAA (sugars k3 d10 k3, PS)	30%	
GTAAUAGCCAGTACAG (sugars k3 d1 m1 d8 k3, PS)	62%	
AATAGAGTTGCACCGT (sugars k3 d10 k3, PS)	48%	
CCATCTATCAGACTTC (sugars k3 d1 m1 d8 k3, PS)	56%	
AGTTTTCGGCACTCAG (sugars k3 d10 k3, PS)	16%	
ACCGTTTTGGGCTAAT (sugars kkdddddddddkekek, PS)	76%	target mRNA inhibition (HSD17B13; 0.02 µM): 23%; target mRNA inhibition (HSD17B13; 0.078 µM): 24%; target mRNA inhibition (HSD17B13; 0.313 µM): 37%; target mRNA inhibition (HSD17B13; 1.25 µM): 66%; target mRNA inhibition (HSD17B13; 5 µM): 78%
TTGCACCGTTTTGGGC (sugars k3 d10 k3, PS)	45%	
GTCTAAAGTGCTGGTT (sugars k3 d10 k3, PS)	39%	
TGTATGAGGTCTCTCA (sugars k3 d10 k3, PS)	66%	
AGGTAGCTTTTGTCCA (sugars k3 d9 k3 e1, PS)	58%	
GCCTAGTTACAAACCA (sugars k3 d10 k3, PS)	56%	
AACTCTATTGATTGGC (sugars k3 d10 k3, PS)	72%	
AACTAGTGGTAATGGT (sugars k3 d10 k3, PS)	32%	
AATTTATTTGCTGGTC (sugars k3 d10 k3, PS)	27%	
TTGGAATGCTACTTGA (sugars k3 d9 k3 e1, PS)	56%	
GCATTAATGCCACCCT (sugars kkdddddddddkekek, PS)	24%	
AAGTTACCAGAGCATT (sugars k3 d10 k3, PS)	70%	target mRNA inhibition (HSD17B13; 0.02 µM): 0%; target mRNA inhibition (HSD17B13; 0.078 µM): 5%; target mRNA inhibition (HSD17B13; 0.313 µM): 45%; target mRNA inhibition (HSD17B13; 1.25 µM): 80%; target mRNA inhibition (HSD17B13; 5 µM): 90%
CTAAACATCTCTGGGA (sugars k3 d1 m1 d8 k3, PS)	32%	
ACTAATATTGAGGCAC (sugars k3 d9 k3 e1, PS)	62%	
ATCCTACATGTAAGGT (sugars k3 d10 k3, PS)	24%	
CTTTTTATAGACTGGG (sugars k3 d9 k3 e1, PS)	44%	
TGAACTGAAACGATCC (sugars k3 d10 k3, PS)	58%	
GGATATACTGTCCCAG (sugars k3 d10 k3, PS)	9%	
TCGATGGAAGAAGTGC (sugars k3 d10 k3, PS)	34%	

Sequence	target mRNA inhibition (HSD17B13; 1 µM)	further results
AGATAAAGCTGCCTGC (sugars kkdddddddddkekek, PS)	30%	
ATTATTATGTGATTGA (sugars k3 d10 k3, PS)	39%	
GATCTCTTAGCTGTGC (sugars kkdddddddddkekek, PS)	45%	
CTGGAACAATATGGGA (sugars k3 d9 k3 e1, PS)	36%	
CAAGGAAAAGCCTGAC (sugars k3 d10 k3, PS)	59%	
GCATCTTAAGATACCC (sugars k3 d9 k3 e1, PS)	84%	target mRNA inhibition (HSD17B13; 0.02 µM): 28%; target mRNA inhibition (HSD17B13; 0.078 µM): 34%; target mRNA inhibition (HSD17B13; 0.313 µM): 58%; target mRNA inhibition (HSD17B13; 1.25 µM): 81%; target mRNA inhibition (HSD17B13; 5 µM): 83%
CAAGACAGACCAAGTA (sugars k3 d10 k3, PS)	27%	
GCCAGATTGCACAAAC (sugars k3 d10 k3, PS)	60%	
ATAGTCCATGCAAAAG (sugars k3 d10 k3, PS)	43%	
GGTGGACTTCAGAGTT (sugars k3 d10 k3, PS)	26%	
AGCGATAGATCTCTTC (sugars k3 d10 k3, PS)	31%	
TCTTATGTAATAGCCA (sugars k3 d1 m1 d8 k3, PS)	64%	
AGAAGATCGGCTGGAT (sugars k3 d10 k3, PS)	29%	
TGCACCGTTTTGGGCT (sugars kkdddddddddkekek, PS)	29%	
GTGCCAAACCAATGTT (sugars k3 d10 k3, PS)	43%	
ACTGATTTAGTTGGTA (sugars k3 d10 k3, PS)	55%	
CTTAAGAGAAGGTGCA (sugars k3 d10 k3, PS)	43%	
CCTGUGTTAGCTTTAA (sugars k3 d1 m1 d8 k3, PS)	28%	
AGTTAGTATAGTTATC (sugars k3 d10 k3, PS)	74%	target mRNA inhibition (HSD17B13; 0.02 µM): 35%; target mRNA inhibition (HSD17B13; 0.078 µM): 35%; target mRNA inhibition (HSD17B13; 0.313 µM): 60%; target mRNA inhibition (HSD17B13; 1.25 µM): 68%; target mRNA inhibition (HSD17B13; 5 µM): 84%
TCTTTAGTCAACAGTA (sugars k3 d10 k3, PS)	68%	
AACGACTCCAAGTAGG (sugars k3 d10 k3, PS)	27%	
CATCAAGCCCTTTTCA (sugars k3 d10 k3, PS)	23%	
TTGACTGCTGCTAGTG (sugars k3 d9 k3 e1, PS)	50%	

— the OligoGym collection
